Measured values reported in ChEMBL document CHEMBL5385858, “Identification of novel Pyrrolo[2,3-d]Pyrimidine-based KRAS G12C inhibitors with anticancer effects” (Eur J Med Chem, 2023).
Activity calls are given as the source filed them. The calls are words filed in the database; no cut-off is given here.

Experiments:
[1] = test system: NCI-H358; assay: Antiproliferative activity against human NCI-H358 cells harboring KRAS G12C/Y96D mutant assessed as inhibition of cell proliferation incubated for 48 hrs by CCK8 assay; assay type: functional, cell-based
[2] = test system: NCI-H358; assay: Induction of apoptosis in human NCI-H358 cells assessed as late apoptotic cells at 0.3 uM incubated for 24 hrs by Annexin V-FITC/PI staining based flow cytometry (reference value: 1.32 %); assay type: functional
[3] = test system: NCI-H358; assay: Induction of apoptosis in human NCI-H358 cells assessed as late apoptotic cells at 1 uM incubated for 24 hrs by Annexin V-FITC/PI staining based flow cytometry (reference value: 1.32 %); assay type: functional
[4] = Toxicity in BALB/c-nu/nu mouse xenografted with human NCI-H358 cells assessed as histological change in kidney at 10 to 30 mg/kg, po qd treated for 20 days by H and E staining based analysis; assay type: organism-based; settings: in vivo, 480 h, dose 10-30 mg/kg, time 20 day
[5] = test system: NCI-H358; assay: Antitumor activity in human NCI-H358 cells xenografted in BALB/c-nu/nu mouse assessed as tumor growth inhibition at 30 mg/kg, po qd treated for 20 days relative to control; assay type: functional; settings: NCI-H358, 480 h, time 20 day, read-out: TGI
[6] = Half life in ICR mouse at 3 mg/kg, iv measured for 24 hrs by LC-MS/MS analysis; assay type: ADME, organism-based; settings: in vivo
[7] = test system: NCI-H358; assay: Induction of apoptosis in human NCI-H358 cells assessed as increase in cleaved caspase-7 level upto 5 uM incubated for 24 hrs by Western blot analysis; assay type: functional, cell-based
[8] = test system: NCI-H358; assay: Induction of apoptosis in human NCI-H358 cells assessed as increase in cleaved PARP level upto 5 uM incubated for 24 hrs by Western blot analysis; assay type: functional, cell-based
[9] = test system: NCI-H358; assay: Induction of apoptosis in human NCI-H358 cells assessed as viable cells at 0.5 uM incubated for 24 hrs by Annexin V-FITC/PI staining based flow cytometry (reference value: 91.4 %); assay type: functional; settings: read-out: Activity
[10] = Oral bioavailability in ICR mouse at 30 mg/kg measured for 24 hrs by LC-MS/MS analysis; assay type: ADME, organism-based; settings: in vivo
[11] = test system: NCI-H358; assay: Antiproliferative activity against human NCI-H358 cells harboring siKRAS assessed as inhibition of cell proliferation; assay type: functional, cell-based
[12] = test system: NCI-H358; assay: Induction of apoptosis in human NCI-H358 cells assessed as late apoptotic cells at 0.1 uM incubated for 24 hrs by Annexin V-FITC/PI staining based flow cytometry (reference value: 1.32 %); assay type: functional
[13] = C0 in ICR mouse at 30 mg/kg, po measured for 24 hrs by LC-MS/MS analysis; assay type: ADME, organism-based; settings: in vivo
[14] = test system: GTPase KRas (Homo sapiens), P01116 [G12C]; assay: Inhibition of KRAS G12C mutant RBD in human NCI-H358 cells upto 1 uM in presence of GTP by pull-down assay; assay type: cell-based; settings: time 24.0 hrs, TDE = time-dependent effect
[15] = test system: GTPase KRas (Homo sapiens), P01116 [G12C]; assay: Inhibition of KRAS G12C mutant in human NCI-H358 cells assessed as decrease in ERK phosphorylation at 0.1 uM incubated for 4 to 24 hrs by Western blot analysis; assay type: cell-based; settings: time 4-24 hrs
[16] = Toxicity in BALB/c-nu/nu mouse xenografted with human NCI-H358 cells assessed as morphological damage in spleen at 10 to 30 mg/kg, po qd treated for 20 days; assay type: organism-based; settings: in vivo, 480 h, dose 10-30 mg/kg, time 20 day
[17] = test system: GTPase KRas (Homo sapiens), P01116 [G12C]; assay: Inhibition of KRAS G12C mutant in human NCI-H358 cells assessed as decrease in ERK phosphorylation upto 5 uM by Western blot analysis; assay type: cell-based; settings: time 2-72 hrs, TDE = time-dependent effect
[18] = Volume of distribution at steady state in ICR mouse at 3 mg/kg, iv measured for 24 hrs by LC-MS/MS analysis; assay type: ADME, organism-based; settings: in vivo, read-out: Vdss
[19] = test system: NCI-H358; assay: Induction of apoptosis in human NCI-H358 cells assessed as necrotic cells at 0.5 uM incubated for 24 hrs by Annexin V-FITC/PI staining based flow cytometry (reference value: 1.88 %); assay type: functional
[20] = Clearance in ICR mouse at 3 mg/kg, iv measured for 24 hrs by LC-MS/MS analysis; assay type: ADME, organism-based; settings: in vivo
[21] = test system: NCI-H358; assay: Induction of apoptosis in human NCI-H358 cells assessed as viable cells at 1 uM incubated for 24 hrs by Annexin V-FITC/PI staining based flow cytometry (reference value: 91.4 %); assay type: functional; settings: read-out: Activity
[22] = test system: NCI-H358; assay: Induction of apoptosis in human NCI-H358 cells assessed as viable cells at 0.1 uM incubated for 24 hrs by Annexin V-FITC/PI staining based flow cytometry (reference value: 91.4 %); assay type: functional; settings: Homo sapiens, NCI-H358, read-out: Activity
[23] = test system: NCI-H1975; assay: Antiproliferative activity against human NCI-H1975 cells harboring wild-type KRAS assessed as inhibition of cell proliferation incubated for 3 days by CCK8 assay; assay type: functional, cell-based; settings: NCI-H1975, 72 h
[24] = AUC (0 to t) in ICR mouse at 3 mg/kg, iv measured for 24 hrs by LC-MS/MS analysis; assay type: ADME, organism-based; parameters: dose 3 mg/kg, time 24 hrs, route iv; settings: in vivo
[25] = test system: NCI-H358; assay: Induction of apoptosis in human NCI-H358 cells assessed as late apoptotic cells at 0.5 uM incubated for 24 hrs by Annexin V-FITC/PI staining based flow cytometry (reference value: 1.32 %); assay type: functional
[26] = Toxicity in BALB/c-nu/nu mouse xenografted with human NCI-H358 cells assessed as histological change in lung at 10 to 30 mg/kg, po qd treated for 20 days by H and E staining based analysis; assay type: organism-based; settings: in vivo, 480 h, dose 10-30 mg/kg, time 20 day
[27] = test system: NCI-H358; assay: Induction of apoptosis in human NCI-H358 cells assessed as viable cells at 0.3 uM incubated for 24 hrs by Annexin V-FITC/PI staining based flow cytometry (reference value: 91.4 %); assay type: functional; settings: read-out: Activity
[28] = test system: NCI-H358; assay: Antitumor activity in human NCI-H358 cells xenografted in BALB/c-nu/nu mouse assessed as tumor regression at 30 mg/kg, po qd treated for 20 days; assay type: functional, organism-based; settings: time 20.0 day
[29] = test system: GTPase KRas (Homo sapiens), P01116 [G12C]; assay: Inhibition of KRAS G12C mutant in human NCI-H358 cells assessed as decrease in AKT phosphorylation incubated for 2 to 72 hrs by Western blot analysis; assay type: cell-based; settings: time 2-72 hrs
[30] = test system: NCI-H358; assay: Induction of apoptosis in human NCI-H358 cells assessed as early apoptotic cells at 0.5 uM incubated for 24 hrs by Annexin V-FITC/PI staining based flow cytometry (reference value: 5.4 %); assay type: functional
[31] = Half life in ICR mouse at 30 mg/kg, po measured for 24 hrs by LC-MS/MS analysis; assay type: ADME, organism-based; settings: in vivo
[32] = test system: NCI-H358; assay: In vivo inhibition of KRAS G12C mutant in human NCI-H358 cells xenografted in BALB/c-nu/nu mouse assessed as decrease in AKT phosphorylation at 10 to 30 mg/kg, po qd treated for 20 days by Western blot analysis; assay type: functional, organism-based; settings: dose 10-30 mg/kg, time 20.0 day
[33] = test system: NCI-H358; assay: Inhibition of cell invasion in human NCI-H358 cells measured for 24 hrs by transwell assay; assay type: functional, cell-based
[34] = AUC (0 to t) in ICR mouse at 30 mg/kg, po measured for 24 hrs by LC-MS/MS analysis; assay type: ADME, organism-based; parameters: dose 30 mg/kg, time 24 hrs, route po; settings: in vivo

GTPase KRas (Homo sapiens), P01116 [G12C], sequence (P01116 whole entry G12C): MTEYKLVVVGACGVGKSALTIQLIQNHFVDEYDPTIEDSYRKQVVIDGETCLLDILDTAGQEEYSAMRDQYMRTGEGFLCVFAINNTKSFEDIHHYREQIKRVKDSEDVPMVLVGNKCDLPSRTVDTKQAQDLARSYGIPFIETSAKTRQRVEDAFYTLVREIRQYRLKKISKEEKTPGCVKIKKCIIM

SMILES: C=CC(=O)N1CCN(c2nc(OC[C@@]34CCCN3C[C@H](F)C4)nc3c2cc(-c2cccc4cccc(C)c24)n3C)C[C@@H]1CC#N
- inhibition [1]: Active
- Activity [2]: 3.93%
- Activity [3]: 5.34%
- Activity [4]: Non-Toxic
- inhibition in vivo at 30 mg/kg [5]: 84%
- half-life [6]: 0.93 h
- Activity [7]: Active
- Activity [8]: Active
- viability at 0.5 µM [9]: 79%
- bioavailability [10]: 10.4%
- inhibition [11]: Active
- Activity [12]: 3.71%
- C0 [13]: 316 ng/mL
- inhibition [14]: Tde
- inhibition [15]: Active
- Activity [16]: Non-Toxic
- inhibition [17]: Tde
- Vd [18]: 4.98 L/kg
- Activity [19]: 0.8%
- clearance [20]: 62.3 mL/min/kg
- viability at 1 µM [21]: 71.2%
- viability at 0.1 µM [22]: 84.6%
- IC50 [23]: 7.91 µM
- AUC(0-t) at 24 h [24]: 801 ng·h/mL
- Activity [25]: 6.26%
- Activity [26]: Non-Toxic
- viability at 0.3 µM [27]: 83.2%
- Activity [28]: Active
- inhibition [29]: Dose-Dependent Effect
- Activity [30]: 14%
- half-life [31]: 4.79 h
- inhibition [32]: Active
- Activity [33]: Dose-Dependent Effect
- AUC(0-t) at 24 h [34]: 600 ng·h/mL
